Measurements taken from PubChem BioAssay (NCI).
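Method: 48-hour compound exposure of cells in 96-well plates, five concentrations, linear interpolation of endpoints. Here, GI50 denotes the concentration required for 50% inhibition of growth. TGI denotes the concentration required for complete inhibition of growth.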

Tests used:
Assay in all cases: DTP human tumour cell line panel, 48 h
[1] = system: COLO 205 colon
[2] = system: HCT-116 colon
[3] = system: 786-0 renal
[4] = system: HT29 colon
[5] = system: A549 NSCLC
[6] = system: UACC-62 melanoma
[7] = system: M19-MEL melanoma
[8] = system: NCI/ADR-RES ovarian
[9] = system: LOX IMVI melanoma

Row | SMILES | TGI [1] | TGI [2] | TGI [3] | TGI [4] | TGI [5] | TGI [6] | TGI [7] | GI50 [1] | GI50 [2] | GI50 [8] | TGI [8] | GI50 [3] | GI50 [4] | GI50 [5] | GI50 [9] | TGI [9] | GI50 [6]
1 | C/C=C/C(=O)[C@@H](O)C(C)C | > 100 µM | > 100 µM | > 100 µM | > 100 µM | > 100 µM | > 100 µM | > 100 µM |  |  |  |  |  |  |  |  |  | 
2 | NC(=O)c1ccc2nc(-c3ccc(C4(N)CCC4)cc3)c(-c3ccccc3)n2n1 | 19 µM | 22.6 µM | 12.2 µM | 25.7 µM | 28.5 µM | 22.7 µM |  | 0.976 µM | 10.2 µM | 15.1 µM | 41.2 µM | 1.23 µM | 1.5 µM | 11.7 µM | 10.5 µM | 24 µM | 10.3 µM
3 | COc1cc(CNc2nc3cc(N)cc(N)c3nc2-c2ccccc2)cc(OC)c1OC | > 50 µM | 19.1 µM | > 50 µM | 19.5 µM | 33.1 µM | 15.5 µM |  | 3.77 µM | 9.84 µM | 10.2 µM | 21.8 µM | 15.6 µM | 8.63 µM | 4.28 µM | 3.19 µM | 10.4 µM | 8.09 µM
4 | COc1cc(/C=C/C(=O)NC[C@]2(O)CCC3C4CCc5cc(O)ccc5C4CCC32C)ccc1O (some centres not stated) | 64.5 µM | 49.3 µM | 45.7 µM | 28.6 µM | > 100 µM | > 100 µM |  | 13.4 µM | 7.97 µM | 9.89 µM | 54.3 µM | 11.3 µM | 3.68 µM | 7.64 µM | 8.36 µM | > 100 µM | 16.8 µM
5 | COc1nc2c(cc1S(=O)(=O)c1ccccc1)CCc1c-2cnn1Cc1ccccc1 | > 100 µM | > 100 µM | > 100 µM | > 100 µM | > 100 µM | > 100 µM |  | 7.32 µM | 3.8 µM | 9.84 µM | > 100 µM | 13.6 µM | 3.89 µM | > 100 µM | > 100 µM | > 100 µM | 7.52 µM
6 | CNS(=O)(=O)c1ccccc1C(=N)c1ccccc1 | > 100 µM | > 100 µM | > 100 µM | > 100 µM | > 100 µM | > 100 µM |  |  |  |  | > 100 µM |  |  |  |  | > 100 µM | 
7 | C[n+]1c2cc(N)ccc2cc2ccc(N)cc21 (tested in a mixture with another compound) | 1.3 µM |  | 2.29 µM | 3.87 µM | 10.1 µM | 1.94 µM |  | 0.148 µM | 0.345 µM | 0.746 µM | 4.84 µM | 0.32 µM | 0.431 µM | 0.0749 µM | 0.307 µM | 1.46 µM | 0.435 µM
8 | COc1ccc2[nH]c(-c3ccccc3)c(C=C(C#N)C#N)c2c1 | 6.83 µM | > 100 µM | > 100 µM | > 100 µM | > 100 µM | 21.7 µM |  | 2.11 µM | 4.37 µM | 2.79 µM | 14 µM | 6.63 µM | 3.13 µM | 6.97 µM | 4.88 µM | > 100 µM | 2.53 µM
9 | C=CC(=O)NCCOc1cccc(Nc2cc(NCCCNC(=O)C3CCC3)c(Br)cn2)c1 | 2.1 µM | > 25 µM | > 25 µM | 2.84 µM | 14.7 µM | 6.87 µM |  | 0.632 µM | 0.798 µM | 8.74 µM | > 25 µM | 0.989 µM | 0.548 µM | 0.881 µM | 0.776 µM | 5.4 µM | 2.58 µM
10 | Cc1cc(Nc2cc(CN3CCOCC3)c3nc(C)c(Cc4ccc(Cl)cc4F)n3n2)n[nH]1 | 2.01 µM | 2.65 µM | 6.18 µM | 12.3 µM | 6.16 µM | 11.3 µM |  | 0.684 µM | 0.689 µM | 4.28 µM | 18.7 µM | 1.67 µM | 1.44 µM | 0.919 µM | 1.11 µM | 2.69 µM | 2.36 µM
11 | OC(COc1cccc2ccccc12)CN1CCN(c2ccc(Cl)cc2)CC1 (configuration not stated) | > 100 µM | > 100 µM | 33.1 µM | 77.6 µM | > 100 µM | > 100 µM |  | > 100 µM | 23.4 µM | 16.4 µM | 61.1 µM | 16.3 µM | 16.6 µM | 19.4 µM | 26.3 µM | > 100 µM | 23.3 µM
12 | COc1cc(-c2nc3ccccc3[nH]2)ccc1OCC(=O)N=Nc1c(O)[nH]c2ccc(Cl)cc12 | 3.79 µM | 1.53 µM | 3.53 µM | 3.48 µM | > 100 µM | 3.18 µM |  | 1.89 µM | 0.4 µM | > 100 µM | > 100 µM | 1.84 µM | 1.62 µM | 3.72 µM | 0.337 µM | 1.24 µM | 1.72 µM
13 | O=C1OCC2=C1C(c1cccc(C(F)(F)F)c1)c1cc3c(cc1N2CCO)OCO3 (configuration not stated) | 3.26 µM | > 50 µM | > 50 µM | 8.4 µM | > 50 µM | > 50 µM |  | 1.18 µM | 0.408 µM | 1.34 µM | > 50 µM | 1.19 µM | 1.31 µM | 2.9 µM | 2.02 µM | > 50 µM | 1.14 µM
14 | CC(N)(Cc1c[nH]c2ccccc12)C(=O)O (configuration not stated) | > 2500 µM | > 2500 µM | > 2500 µM | > 2500 µM | > 2500 µM | > 2500 µM |  | > 2500 µM | > 2500 µM | > 2500 µM | > 2500 µM | > 2500 µM | > 2500 µM | > 2500 µM | > 2500 µM | > 2500 µM | > 2500 µM
15 | Cc1ccc(Nc2[nH]c(C(=O)c3ccc(Cl)cc3)c(N)c2C(=S)Nc2ccccc2)nc1 | > 100 µM | > 100 µM | > 100 µM | > 100 µM | > 100 µM | 41 µM |  | 31.9 µM | 42.8 µM | 15.9 µM | 87.7 µM | 35.7 µM | 57.8 µM | 37.7 µM | 23 µM | 53.1 µM | 15.3 µM
